Experimental data from patent US20230295200A1 (REGENTS OF THE UNIVERSITY OF MICHIGAN, priority 2022, published 2023).
pKi: −log10 of the molar value.

Molecular target: T1, STAT6 protein (Homo sapiens, UniProt P42226)
T1 sequence (P42226 1-847): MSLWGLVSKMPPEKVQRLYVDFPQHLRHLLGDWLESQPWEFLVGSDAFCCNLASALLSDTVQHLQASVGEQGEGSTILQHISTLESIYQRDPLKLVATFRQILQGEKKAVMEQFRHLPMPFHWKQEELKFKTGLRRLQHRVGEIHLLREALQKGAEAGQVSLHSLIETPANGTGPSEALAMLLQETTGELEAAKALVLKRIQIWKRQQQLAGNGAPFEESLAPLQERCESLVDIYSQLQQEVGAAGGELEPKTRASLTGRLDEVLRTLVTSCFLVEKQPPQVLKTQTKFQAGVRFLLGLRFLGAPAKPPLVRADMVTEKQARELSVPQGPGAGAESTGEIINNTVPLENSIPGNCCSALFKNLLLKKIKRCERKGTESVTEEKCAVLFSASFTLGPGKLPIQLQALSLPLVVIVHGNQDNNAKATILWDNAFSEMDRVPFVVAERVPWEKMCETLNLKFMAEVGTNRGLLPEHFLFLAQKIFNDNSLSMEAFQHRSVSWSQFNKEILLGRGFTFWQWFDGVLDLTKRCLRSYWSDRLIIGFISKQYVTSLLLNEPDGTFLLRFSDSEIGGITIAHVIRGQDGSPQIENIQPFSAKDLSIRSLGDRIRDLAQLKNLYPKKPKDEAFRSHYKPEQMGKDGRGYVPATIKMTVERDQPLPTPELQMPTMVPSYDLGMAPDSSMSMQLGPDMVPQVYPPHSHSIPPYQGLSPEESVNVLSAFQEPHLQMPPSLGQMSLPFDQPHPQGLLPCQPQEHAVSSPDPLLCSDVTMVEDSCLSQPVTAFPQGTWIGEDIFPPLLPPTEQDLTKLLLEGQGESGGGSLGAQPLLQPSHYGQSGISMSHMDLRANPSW
Assay: Fluorescence polarization (FP) binding assay, STAT6
Conditions: FP competition, 5 nM fluorescein-labeled tracer, 200 nM protein, PBS pH7.4; read-out: Binding STAT6
Outline: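 Fluorescein-labelled tracer (5 nM) with 200 nM STAT5 and/or STAT6 protein in PBS pH 7.4, 0.01% BGG, 0.01% Tween-20, 2 mM DTT. Mixed 15 min, then equilibrated 1 h at room temperature; read by fluorescence polarization, constants from nonlinear curve fitting.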

SMILES	pKi
CC(C)(C)[C@H](NC(=O)/C=C/c1ccc(C(F)(F)P(=O)(O)O)cc1)C(=O)N1CCC[C@H]1C(=O)N(c1ccccc1)c1ccc(I)cc1 [Compound 1, (difluoro(4-((E)-3-(((S)-1-((S)-2-((4-iodophenyl)(phenyl)carbamoyl)pyrrolidin-1-yl)-3,3-dimethyl-1-oxobutan-2-yl)amino)-3-oxoprop-1-en-1-yl)phenyl)methyl)phosphonic acid]	6.00 to 7.00
CC(C)(C)[C@H](NC(=O)c1cc2cc(C(F)(F)P(=O)(O)O)ccc2[nH]1)C(=O)N1CCC[C@H]1C(=O)N(c1ccccc1)c1ccc(I)cc1 [Compound 2, (difluoro(2-(((S)-1-((S)-2-((4-iodophenyl)(phenyl)carbamoyl)pyrrolidin-1-yl)-3,3-dimethyl-1-oxobutan-2-yl)carbamoyl)-1H-indol-5-yl)methyl)phosphonic acid]	6.00 to 7.00

Molecular target: T2, STAT5A (Homo sapiens, UniProt P42229)
T2 sequence (P42229 1-794): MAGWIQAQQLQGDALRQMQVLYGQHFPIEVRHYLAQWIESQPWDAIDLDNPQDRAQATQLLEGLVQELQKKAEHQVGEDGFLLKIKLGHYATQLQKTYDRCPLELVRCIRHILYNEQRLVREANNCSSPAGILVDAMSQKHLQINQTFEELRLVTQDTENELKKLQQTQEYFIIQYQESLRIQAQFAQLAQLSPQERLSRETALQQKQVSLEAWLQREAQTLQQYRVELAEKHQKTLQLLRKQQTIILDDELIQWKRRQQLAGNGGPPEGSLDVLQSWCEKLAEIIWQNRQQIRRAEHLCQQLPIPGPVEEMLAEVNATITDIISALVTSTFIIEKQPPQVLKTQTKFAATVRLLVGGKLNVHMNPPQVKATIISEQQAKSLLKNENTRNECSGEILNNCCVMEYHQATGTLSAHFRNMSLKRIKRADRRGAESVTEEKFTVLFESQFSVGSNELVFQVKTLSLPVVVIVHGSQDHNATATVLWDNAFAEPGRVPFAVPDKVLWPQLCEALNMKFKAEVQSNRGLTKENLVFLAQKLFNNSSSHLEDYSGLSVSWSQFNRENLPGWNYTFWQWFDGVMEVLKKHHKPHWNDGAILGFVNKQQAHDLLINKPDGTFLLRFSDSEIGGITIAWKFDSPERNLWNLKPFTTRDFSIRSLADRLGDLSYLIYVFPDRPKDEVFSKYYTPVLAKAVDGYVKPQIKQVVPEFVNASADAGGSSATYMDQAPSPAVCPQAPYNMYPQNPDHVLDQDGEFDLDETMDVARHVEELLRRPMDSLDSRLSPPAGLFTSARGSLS
Assay: Fluorescence polarization (FP) binding assay, STAT5A
Conditions: FP competition, 5 nM fluorescein-labeled tracer, 200 nM protein, PBS pH7.4
Procedure: Evaluation of the activity of the inhibitors may be accomplished by fluorescence polarization (FP) experiments. A representative general protocol is the following:
Fluorescence polarization (FP) experiments are performed in black round-bottom plates using the CLARIOstar microplate reader. To each well, fluorescein-labeled tracer and STAT5 or STAT6 protein are added in assay buffer. […] The inhibition constants are determined as the concentration of the STAT5 or STAT6 at which 50% of the ligand is bound.
Fluorescence polarization (FP) experiments were performed in 96-well, black round-bottom plates (Microfluor 2, Fisher Scientific) using the CLARIOstar microplate reader (BMG Labtech). To each well, 5 nM of fluoresceinlabeled tracer and 200 nM of STAT5 and/or STAT6 protein were added to a final volume of 100 μl in the assay buffer (PBS pH7.4+0.01% BGG+0.01% Tween-20, 2 mM DTT). The plate was mixed on a shaker for 15 m and incubated at room temperature for 1 h to reach equilibrium. […] All experimental data were analyzed using Prism 8.0 software (GraphPad Software), and the inhibition constants were determined by nonlinear curve fitting as the concentration of the STAT5 and/or STAT6 at which 50% of the ligand is bound.

SMILES	pKi
CC(C)(C)[C@H](NC(=O)/C=C/c1ccc(C(F)(F)P(=O)(O)O)cc1)C(=O)N1CCC[C@H]1C(=O)N(c1ccccc1)c1ccc(I)cc1 [Compound 1, (difluoro(4-((E)-3-(((S)-1-((S)-2-((4-iodophenyl)(phenyl)carbamoyl)pyrrolidin-1-yl)-3,3-dimethyl-1-oxobutan-2-yl)amino)-3-oxoprop-1-en-1-yl)phenyl)methyl)phosphonic acid]	< 5.00
CC(C)(C)[C@H](NC(=O)c1cc2cc(C(F)(F)P(=O)(O)O)ccc2[nH]1)C(=O)N1CCC[C@H]1C(=O)N(c1ccccc1)c1ccc(I)cc1 [Compound 2, (difluoro(2-(((S)-1-((S)-2-((4-iodophenyl)(phenyl)carbamoyl)pyrrolidin-1-yl)-3,3-dimethyl-1-oxobutan-2-yl)carbamoyl)-1H-indol-5-yl)methyl)phosphonic acid]	5.00 to 6.00
CN(C(=O)[C@@H]1CCCCCN1C(=O)[C@@H](NC(=O)c1cc2cc(C(F)(F)P(=O)(O)O)ccc2s1)C(C)(C)C)c1ncc(-c2ccccc2)s1 [Compound 303, ((2-(((S)-3,3-dimethyl-1-((S)-2-(methyl(5-phenylthiazol-2-yl)carbamoyl)azepan-1-yl)-1-oxobutan-2-yl)carbamoyl)benzo[b]thiophen-5-yl)difluoromethyl)phosphonic acid]	5.00 to 6.00
CCN(C(=O)[C@@H]1CCCCCN1C(=O)[C@@H](NC(=O)c1cc2cc(C(F)(F)P(=O)(O)O)ccc2s1)C(C)(C)C)c1ncc(-c2ccccc2)s1 [Compound 304, ((2-(((S)-1-((S)-2-(ethyl(5-phenylthiazol-2-yl)carbamoyl)azepan-1-yl)-3,3-dimethyl-1-oxobutan-2-yl)carbamoyl)benzo[b]thiophen-5-yl)difluoromethyl)phosphonic acid]	5.00 to 6.00
CN(C)C(=O)CCN(C(=O)[C@@H]1CCCN1C(=O)[C@@H](NC(=O)c1cc2cc(C(F)(F)P(=O)(O)O)ccc2s1)C1CC1)c1ccc(-c2nccs2)cc1 [Compound 321, ((2-(((S)-1-cyclopropyl-2-((S)-2-((3-(dimethylamino)-3-oxopropyl)(4-(thiazol-2-yl)phenyl)carbamoyl)pyrrolidin-1-yl)-2-oxoethyl)carbamoyl)benzo[b]thiophen-5-yl)difluoromethyl)phosphonic acid]	5.00 to 6.00
CCC(CC)[C@H](NC(=O)c1cc2cc(C(F)(F)P(=O)(O)O)ccc2s1)C(=O)N1CCC[C@H]1C(=O)N(CCC(=O)N(C)C)c1ccc(-c2nccs2)cc1 [Compound 322, ((2-(((S)-1-((S)-2-((3-(dimethylamino)-3-oxopropyl)(4-(thiazol-2-yl)phenyl)carbamoyl)pyrrolidin-1-yl)-3-ethyl-1-oxopentan-2-yl)carbamoyl)benzo[b]thiophen-5-yl)difluoromethyl)phosphonic acid]	6.00 to 7.00
CN(C)C(=O)CCN(C(=O)[C@@H]1CCCN1C(=O)[C@@H](NC(=O)c1cc2cc(C(F)(F)P(=O)(O)O)ccc2s1)C1CCCCC1)c1ccc(-c2nccs2)cc1 [Compound 323, ((2-(((S)-1-cyclohexyl-2-((S)-2-((3-(dimethylamino)-3-oxopropyl)(4-(thiazol-2-yl)phenyl)carbamoyl)pyrrolidin-1-yl)-2-oxoethyl)carbamoyl)benzo[b]thiophen-5-yl)difluoromethyl)phosphonic acid]	5.00 to 6.00
CN(C)C(=O)CCN(C(=O)[C@@H]1CCCN1C(=O)[C@@H](NC(=O)c1cc2cc(C(F)(F)P(=O)(O)O)ccc2s1)c1ccccc1)c1ccc(-c2nccs2)cc1 [Compound 324, ((2-(((S)-2-((S)-2-((3-(dimethylamino)-3-oxopropyl)(4-(thiazol-2-yl)phenyl)carbamoyl)pyrrolidin-1-yl)-2-oxo-1-phenylethyl)carbamoyl)benzo[b]thiophen-5-yl)difluoromethyl)phosphonic acid]	5.00 to 6.00
CN(C)C(=O)CCN(C(=O)[C@@H]1CCCN1C(=O)[C@H](Cc1ccc(F)cc1)NC(=O)c1cc2cc(C(F)(F)P(=O)(O)O)ccc2s1)c1ccc(-c2nccs2)cc1 [Compound 325, ((2-(((S)-1-((S)-2-((3-(dimethylamino)-3-oxopropyl)(4-(thiazol-2-yl)phenyl)carbamoyl)pyrrolidin-1-yl)-3-(4-fluorophenyl)-1-oxopropan-2-yl)carbamoyl)benzo[b]thiophen-5-yl)difluoromethyl)phosphonic acid]	6.00 to 7.00
CN(C)C(=O)CCN(C(=O)[C@@H]1CCCN1C(=O)[C@H](Cc1ccc(Br)cc1)NC(=O)c1cc2cc(C(F)(F)P(=O)(O)O)ccc2s1)c1ccc(-c2nccs2)cc1 [Compound 326, ((2-(((S)-3-(4-bromophenyl)-1-((S)-2-((3-(dimethylamino)-3-oxopropyl)(4-(thiazol-2-yl)phenyl)carbamoyl)pyrrolidin-1-yl)-1-oxopropan-2-yl)carbamoyl)benzo[b]thiophen-5-yl)difluoromethyl)phosphonic acid]	5.00 to 6.00
CN(C)C(=O)CCN(C(=O)[C@@H]1CCCN1C(=O)[C@H](Cc1ccc(C(F)(F)F)cc1)NC(=O)c1cc2cc(C(F)(F)P(=O)(O)O)ccc2s1)c1ccc(-c2nccs2)cc1 [Compound 327, ((2-(((S)-1-((S)-2-((3-(dimethylamino)-3-oxopropyl)(4-(thiazol-2-yl)phenyl)carbamoyl)pyrrolidin-1-yl)-1-oxo-3-(4-(trifluoromethyl)phenyl)propan-2-yl)carbamoyl)benzo[b]thiophen-5-yl)difluoromethyl)phosphonic acid]	5.00 to 6.00
CN(C)C(=O)CCN(C(=O)[C@@H]1CCCN1C(=O)[C@H](CCc1ccccc1)NC(=O)c1cc2cc(C(F)(F)P(=O)(O)O)ccc2s1)c1ccc(-c2nccs2)cc1 [Compound 328, ((2-(((S)-1-((S)-2-((3-(dimethylamino)-3-oxopropyl)(4-(thiazol-2-yl)phenyl)carbamoyl)pyrrolidin-1-yl)-1-oxo-4-phenylbutan-2-yl)carbamoyl)benzo[b]thiophen-5-yl)difluoromethyl)phosphonic acid]	6.00 to 7.00
CN(C)C(=O)CCN(C(=O)[C@@H]1CCCN1C(=O)[C@H](Cc1ccc2ccccc2c1)NC(=O)c1cc2cc(C(F)(F)P(=O)(O)O)ccc2s1)c1ccc(-c2nccs2)cc1 [Compound 329, ((2-(((S)-1-((S)-2-((3-(dimethylamino)-3-oxopropyl)(4-(thiazol-2-yl)phenyl)carbamoyl)pyrrolidin-1-yl)-3-(naphthalen-2-yl)-1-oxopropan-2-yl)carbamoyl)benzo[b]thiophen-5-yl)difluoromethyl)phosphonic acid]	5.00 to 6.00
